Measured values taken from US20230312584A1, “SALT OF NUCLEOSIDE ANALOG, AND CRYSTAL FORM, PHARMACEUTICAL COMPOSITION AND USE THEREOF” (priority 2020, published 2023).
In brackets after ≈: the same amount, converted by molar mass. Where a name gives a salt, the structure may show the parent alone. Read-outs that look alike come from different tables or passages of the source.

Assays:
[1] = format: physicochemical
Procedure: The test product is placed in suitable clean containers, and then placed under conditions of high temperature (80° C.), high humidity (25° C., relative humidity 92.5%), and light (light intensity 4500±500 1× and 90 μw/cm^2), respectively, for 7 days, and samples are taken on the 7th day and tested according to the stability inspection items.

[2] = Hygroscopicity test; format: physicochemical; details: 25° C., RH80%, 24 hours
Procedure: An appropriate amount of a test product is taken and spread in a glass-stoppered weighing bottle that has been placed in an artificial climate box (temperature is 25° C.±1° C., relative humidity is 80%±2%) for 24 hours. The weighing bottle is opened, put together with the stopper in the artificial climate box (the temperature is 25° C.±1° C., the relative humidity is 80%±2%) for 24 hours, and then taken out. The moisture content of the test product before and after being placed in the artificial climate box is measured, and the hygroscopicity is measured by comparing the change in moisture content.

[3] = physchem; format: physicochemical; details: for Solubility in water: 30 min
Procedure: About 10 mg of the test product is taken and put in a 1.5 mL sample tube, to which 1 mL of deionized water is added, and then the sample tube is placed in a constant temperature mixer and shaken at 37° C. for 30 minutes; after shaking, the sample tube is placed in a centrifuge to undergo centrifugation for 2 minutes. Then, 500 μL of the supernatant is taken and diluted with acetonitrile to an appropriate concentration, which is used as a test sample solution for HPLC analysis.
An appropriate amount of sample was weighed and put in a glass test tube, to which a selected solvent was gradually added. The clarification process was observed.

[4] = test system: a variety of other RNA viruses; details: according to experimental tests; compounds of CN 202010313870.X; cited from earlier work
[5] = test system: SARS-CoV-2; details: according to experimental tests; compounds of CN 202010313870.X; cited from earlier work

Br.CC(C)C(=O)OC[C@H]1O[C@@](C#N)(c2ccc3c(N)ncnn23)[C@H](OC(=O)C(C)C)[C@@H]1OC(=O)C(C)C [Hydrobromide of Compound W, (2R,3R,4R,5R)-2-(4-aminopyrrolo[2,1-f][1,2,4]triazin-7-yl)-2-cyano-5-(isobutyryloxymethyl)tetrahydrofuran-3,4-diyl bis(2-methylpropanoate) hydrobromide]
Stability ([1]; 7 days): Good stability under high temperature (80° C.), high | Hygroscopicity [2]: no hygroscopicity | increase in moisture content [2]: RH80%, with an increase in moisture content of <0.1%,

O=C(O)/C=C\C(=O)O.[2H]c1cc([C@]2(C#N)O[C@H](COC(=O)C(C)C)[C@@H](OC(=O)C(C)C)[C@H]2OC(=O)C(C)C)n2ncnc(N)c12 [Maleate of Compound Z, (2R,3R,4R,5R)-2-(4-aminopyrrolo[2,1-f][1,2,4]triazin-7-yl-5-d)-2-cyano-5-(isobutyryloxymethyl)tetrahydrofuran-3,4-diyl bis(2-methylpropanoate) maleate]
solubility at 30 min ([3]; 37 °C, water, thermodynamic from solid, Solubility in water): 351 µg/mL | increase in moisture content [2]: moisture content of <0.1% | Hygroscopicity ([2]; listed as maleate of Compound Z, maleate): no hygroscopicity

CC(C)C(=O)OC[C@H]1O[C@@](C#N)(c2ccc3c(N)ncnn23)[C@H](OC(=O)C(C)C)[C@@H]1OC(=O)C(C)C [Compound W, (2R,3R,4R,5R)-2-(4-aminopyrrolo[2,1-f][1,2,4]triazin-7-yl)-2-cyano-5-(isobutyryloxymethyl)tetrahydrofuran-3,4-diyl bis(2-methylpropanoate)]
water solubility [3]: poor water solubility | inhibitory effect on a variety of other RNA viruses [4]: good inhibitory effect | anti-SARS-CoV-2 activity [5]: significant

[2H]c1cc([C@]2(C#N)O[C@H](COC(=O)C(C)C)[C@@H](OC(=O)C(C)C)[C@H]2OC(=O)C(C)C)n2ncnc(N)c12 [Nitrate of Compound Z, (2R,3R,4R,5R)-2-(4-aminopyrrolo[2,1-f][1,2,4]triazin-7-yl-5-d)-2-cyano-5-(isobutyryloxymethyl)tetrahydrofuran-3,4-diyl bis(2-methylpropanoate) nitrate]
Stability ([1]; 7 days): (80° C.), the solid melted, decomposed, | Hygroscopicity ([2]; listed as nitrate of Compound Z, nitrate): no hygroscopicity | increase in moisture content ([2]; nitrate): moisture content of <0.1%

[2H]c1cc([C@]2(C#N)O[C@H](COC(=O)C(C)C)[C@@H](OC(=O)C(C)C)[C@H]2OC(=O)C(C)C)n2ncnc(N)c12 [Compound Z, (2R,3R,4R,5R)-2-(4-aminopyrrolo[2,1-f][1,2,4]triazin-7-yl-5-d)-2-cyano-5-(isobutyryloxymethyl)tetrahydrofuran-3,4-diyl bis(2-methylpropanoate)]
water solubility [3]: poor water solubility | Solubility in water [3]: 29 µg/mL (≈ 57.7 µM) | inhibitory effect on a variety of other RNA viruses [4]: good inhibitory effect | anti-SARS-CoV-2 activity [5]: significant

Cl.[2H]c1cc([C@]2(C#N)O[C@H](COC(=O)C(C)C)[C@@H](OC(=O)C(C)C)[C@H]2OC(=O)C(C)C)n2ncnc(N)c12 [Hydrochloride of Compound Z, (2R,3R,4R,5R)-2-(4-aminopyrrolo[2,1-f][1,2,4]triazin-7-yl-5-d)-2-cyano-5-(isobutyryloxymethyl)tetrahydrofuran-3,4-diyl bis(2-methylpropanoate) hydrochloride]
increase in moisture content [2]: moisture content of <0.1% | Hygroscopicity ([2]; listed as hydrochloride of Compound Z, hydrochloride): no hygroscopicity

[2H]c1cc([C@]2(C#N)O[C@H](COC(=O)C(C)C)[C@@H](OC(=O)C(C)C)[C@H]2OC(=O)C(C)C)n2ncnc(N)c12 [Mesylate of Compound Z, (2R,3R,4R,5R)-2-(4-aminopyrrolo[2,1-f][1,2,4]triazin-7-yl-5-d)-2-cyano-5-(isobutyryloxymethyl)tetrahydrofuran-3,4-diyl bis(2-methylpropanoate) mesylate]
Stability [1]: decomposed obviously and had a peculiar smell. | Solubility in water [3]: 464 µg/mL | increase in moisture content [2]: moisture content of <0.2% | Hygroscopicity ([2]; listed as mesylate of Compound Z, mesylate): no hygroscopicity
